Columns and labels:
[1] = system: Gαi; experiment: NanoBiT Gαi1 dissociation assay (split luciferase); assay type: cell-based; details: 60 minutes
Protocol: The NanoBiT G-protein dissociation assay, based on a split-luciferase system, was performed as previously described with some modifications (Inoue et al., 2019). All DNA constructs were provided by Dr. Asuka Inoue (Tohoku University, Japan). NanoBiT plasmids (pCAGGS) include Gαi1-LgBiT, Gβ1-native, and SmBiT-Gγ2 (CAAX C68S mutant). Gαi-DREADD (pcDNA3.1) was used as a synthetic Gαi-coupled GPCR. Briefly, CAL-33 and HET-1A cells were seeded on poly-D-lysine coated (Sigma, Cat #P7280), opaque, white 96-well plates (Falcon Cat #353296). The following day cells were transfected with NanoBiT and receptor plasmids using Lipofectamine 3000 (ThermoFisher Scientific, Cat #L3000008) according to manufacturer recommendations for a 12-well scale (10 μL transfection mix to each well). The NanoBiT plasmids were mixed at a ratio of 100 ng Gαi1-LgBiT, 500 ng Gβ1, 500 ng SmBiT-Gγ2, and 200 ng of receptor if needed. For gene knockdown experiments, 10 pmol of pooled siControl (Dharmacon, Cat #D-001810-10-20), siFGFR3 (Mission siRNA, Cat #SIHK0780, SIHK0781, SIHK0782), or siDaple (Dharmacon, Cat #L-033364-01-0005) was included in the plasmid mix. Media was changed the following day. Two days after transfection, media was aspirated from each well and washed once with HBSS. Cells were incubated in HBSS with a final concentration of 5 μM native coelenterazine (Biotium, Cat #10110-1) for 30 minutes at room temperature protected from light. Basal luminescence was read and ligand prepared for final concentrations of 10 ng/mL human bFGF (Roche Cat #11123149001) and 10 μM clozapine-N-oxide (Cayman Chemical, Cat #NC1044836). After ligand addition, luminescence was read in kinetic loops (each well ˜every 30 seconds) for 60 minutes total (Tecan Spark). Raw luminescent values were normalized to the corresponding basal value for each well and subsequently to the mean vehicle ratio (raw/basal) at time 0. Significance was calculated using a one-way ANOVA at the 60 minute time point.
To test this idea, a split luciferase assay (Gαi NanoBiT) was used, in which signal is lost upon activation of Gαi and dissociation from Gβγ (FIG. 15C and FIG. 16A). As a control, an engineered Designer Receptor Exclusively Activated by Designer Drugs (DREADD) receptor was first transfected, and the resulting cell population stimulated with the DREADD ligand, clozapine-N-oxide (CNO).
Referring to FIG. 15C, NanoBiT biosensor measures Gαi activation through dissociation of the luciferase split between Gα and Gβγ. CNO mediates canonical GPCR signaling through the synthetic Gαi-coupled DREADD receptor. FGF mediates HNSCC-specific signaling through FGFR3 and Daple.

[2] = system: solid tumors with FGFR mRNA overexpression; details: phase I trials; cited from earlier work
[3] = system: CAL-33 cells; experiment: Scratch migration assay; assay type: cell-based; details: fibronectin-plated CAL-33 cells; 10 ng/mL bFGF, 24 hours; versus vehicle
Protocol: CAL-33 cells were seeded on 12-well plates coated with 10 μg/mL fibronectin in PBS (Sigma Aldrich, Cat #F2006-1MG). Once cells reached confluence, a vertical scratch was made with a pipette tip and washed well with PBS before adding serum-free media. Cells were stimulated with vehicle, 10 ng/mL bFGF, or 1% serum for 24 hours. Images were taken at the 0 and 24 hour time points (2× magnification) and the scratch area was quantified using ImageJ. Percent scratch closure was calculated for each well and significance assessed using a one-way ANOVA.
Referring to FIG. 15H, a vertical scratch was introduced to fibronectin-plated CAL-33 cells. Images were taken at 0 and 24 hours after FGF stimulation (scale bar=200 μm). (I) Quantification of replicate scratch closure assays from panel H (*P<0.05 when compared with the vehicle-treated group).

[4] = system: ERK phosphorylation; experiment: ERK phosphorylation immunoblot after FGF stimulation; assay type: cell-based; details: FGF 10 ng/mL, time course
Protocol: (§1) CAL-33 and HET-1A cells were seeded on poly-D-lysine-coated 6-well plates. Cells were transfected with siRNA using Lipofectamine RNAiMAX (Thermo Fisher Scientific, Cat #100014472) according to manufacturer recommendations. After overnight serum starvation, cells were stimulated with vehicle, 10 ng/mL bFGF, or 10 μM CNO. Cells were washed once with PBS and lysed in RIPA buffer (50 mM Tris-HCl pH 6.8, 150 mM NaCl, 1% NP-40, 0.5% sodium deoxycholate, 0.1% SDS) with protease and phosphatase inhibitors (Bimake, Cat #B14001, B15001-A/B). Lysates were briefly sonicated and cleared by centrifugation before boiling in Laemmli sample buffer (Bio-Rad Cat #1610747). After separation on 10% acrylamide gels and transfer to PVDF membranes, membranes were blocked with 2% BSA in TBST before incubating with antibodies. […]
Referring to FIG. 16C, ERK phosphorylation over a time course was measured by immunoblotting in CAL-33 and HET-1A cells stimulated with FGF (10 ng/mL).

[5] = system: PAK1/2 phosphorylation; experiment: PAK1/2 phosphorylation immunoblot after FGF stimulation; assay type: cell-based; details: FGF stimulation 0, 5, 10, 30, 60 minutes
Protocol: as §1
Referring to FIG. 15G, PAK1/2 autophosphorylation was measured by immunoblot analysis over a time course of FGF stimulation (0, 5, 10, 30, 60 minutes) in CAL-33 and HET-1A cells.

C[N+]1([O-])CCN(C2=Nc3cc(Cl)ccc3Nc3ccccc32)CC1 [CNO, clozapine-N-oxide]
Gαi activation (loss of luciferase signal) ([1]; CAL-33 cells expressing Gαi NanoBiT and DREADD receptor, CNO 10 μM): Robust Gαi activation | Gαi activation (loss of luciferase signal) ([1]; HET-1A cells expressing Gαi NanoBiT and DREADD receptor, CNO 10 μM): Robust Gαi activation

COCc1c(-c2cc3cc(C)cc(OC)c3s2)c2c(N)ncnn2c1CN1CCNC(=O)C1 [rogaratinib]
objective response rate [2]: 67%

FGF: human bFGF (Roche), fibroblast growth factor used as ligand for stimulation
Gαi activation (loss of luciferase signal) ([1]; CAL-33 cells, Gαi NanoBiT, FGF 10 ng/mL): induce Gαi activation | Gαi activation (loss of luciferase signal) ([1]; HET-1A cells, Gαi NanoBiT, FGF 10 ng/mL): no such activation occurred | cell migration (scratch closure) [3]: statistically significant increase | ERK phosphorylation ([4]; CAL-33 cells): rapidly induced ERK phosphorylation | ERK phosphorylation ([4]; HET-1A cells): rapidly induced ERK phosphorylation | phosphorylation of PAK1/2 ([5]; CAL-33 cells): results in downstream phosphorylation of PAK1/2 | phosphorylation of PAK1/2 ([5]; HET-1A cells): not observed

Reference: patent US20240321457A1, “SYSTEMS FOR AND METHODS OF TREATMENT SELECTION” (THE REGENTS OF THE UNIVERSITY OF CALIFORNIA, priority 2020, published 2024)
